Data: US9963455B2, “Pyrazolo[1,5-a]pyrimidines as antiviral compounds” (Curovir AB, priority 2014, dated 2018)

Assays:
Format in all cases: cell-based
Enterovirus strain 71 = experiment: CPE inhibition in mammalian cell culture, EV71; conditions: for inhibition at 1 µM: EV71, Conc. 1.0 μM; for inhibition at 0.01 µM: EV71, Conc. 0.01 μM
[1] = test system: Human parechovirus strain 1; experiment: CPE inhibition in mammalian cell culture, HPeV-1; conditions: Parechovirus A; HPeV-1, Conc. 10.0 μM; read-out: % inh.
Enterovirus strain 30 = experiment: CPE inhibition in mammalian cell culture, EV30
[2] = test system: coxsackie B virus strain 5; experiment: CPE inhibition in mammalian cell culture, Cox-B5; conditions: read-out: % inh.
Ljungan virus strain 145 = experiment: CPE inhibition in mammalian cell culture, LV145; conditions: Parechovirus B; for inhibition at 10 µM: LV145, Conc. 10.0 μM; for inhibition at 1 µM: LV145, Conc. 1.0 μM
Ljungan virus strain 012 = experiment: CPE inhibition in mammalian cell culture, LV012; conditions: Parechovirus B, read-out: % inh.; for inhibition at 10 µM: LV012, Conc. 10 μM
[3] = test system: coxsackie B virus strain 3; experiment: CPE inhibition in mammalian cell culture, Cox-B3; conditions: read-out: % inh.
[4] = test system: coxsackie B virus strain 1; experiment: CPE inhibition in mammalian cell culture, Cox-B1; conditions: read-out: % inh.

## Cc1cc(NCc2ccccc2)n2nc(C)c(-c3ccc(F)cc3)c2n1 [Ex. 13, N-benzyl-3-(4-fluorophenyl)-2,5-dimethyl-pyrazolo[1,5-a]pyrimidin-7-amine]
Enterovirus strain 71
  inhibition at 1 µM: 66%

## Cc1cc(NCc2ccccc2)n2ncc(-c3ccc(Cl)cc3)c2n1 [Ex. 25, N-benzyl-3-(4-chlorophenyl)-5-methyl-pyrazolo[1,5-a]pyrimidin-7-amine]
[1]
  inhibition at 10 µM: 24%

## Cc1ccc(-c2c(C)nn3c(NCc4cccnc4)cc(C)nc23)cc1 [Ex. 34, 2,5-dimethyl-3-(p-tolyl)-N-(3-pyridylmethyl)pyrazolo[1,5-a]pyrimidin-7-amine]
Enterovirus strain 71
  inhibition at 1 µM: 100%

## COc1ccc(-c2c(C)nn3c(NCc4ccccn4)cc(C)nc23)cc1OC [Ex. 35, 3-(3,4-dimethoxyphenyl)-2,5-dimethyl-N-(2-pyridylmethyl)pyrazolo[1,5-a]pyrimidin-7-amine]
Enterovirus strain 30; EV30, Conc. 0.1 μM
  inhibition at 0.1 µM: 88%

## Cc1cc(NCc2cccnc2)n2nc(C)c(-c3ccc(F)cc3)c2n1 [Ex. 36, 3-(4-fluorophenyl)-2,5-dimethyl-N-(3-pyridylmethyl)pyrazolo[1,5-a]pyrimidin-7-amine]
[2]
  inhibition at 1 µM: 97%

## COc1ccc(-c2c(C)nn3c(NCc4ccccc4)cc(C)nc23)cc1OC [Ex. 40, N-benzyl-3-(3,4-dimethoxyphenyl)-2,5-dimethyl-pyrazolo[1,5-a]pyrimidin-7-amine]
Enterovirus strain 71
  inhibition at 0.01 µM: 100%

## COc1ccc(-c2c(C)nn3c(NC4CCCCC4)cc(C)nc23)cc1OC [Ex. 43, N-cyclohexyl-3-(3,4-dimethoxyphenyl)-2,5-dimethyl-pyrazolo[1,5-a]pyrimidin-7-amine]
[1]
  inhibition at 10 µM: 46%

## Cc1cc(NCc2cccnc2)n2nc(C)c(-c3ccc(Cl)cc3)c2n1 [Ex. 45, 3-(4-chlorophenyl)-2,5-dimethyl-N-(3-pyridylmethyl)pyrazolo[1,5-a]pyrimidin-7-amine]
Enterovirus strain 71
  inhibition at 1 µM: 100%

## COc1ccc(-c2c(C)nn3c(Nc4ccc(Br)cc4)cc(C)nc23)cc1OC [Ex. 46, N-(4-bromophenyl)-3-(3,4-dimethoxyphenyl)-2,5-dimethyl-pyrazolo[1,5-a]pyrimidin-7-amine]
Ljungan virus strain 145
  inhibition at 10 µM: 92%

## COc1ccc(-c2c(C)nn3c(Nc4ccc(Cl)cc4)cc(C)nc23)cc1OC [Ex. 47, N-(4-chlorophenyl)-3-(3,4-dimethoxyphenyl)-2,5-dimethyl-pyrazolo[1,5-a]pyrimidin-7-amine]
[1]
  inhibition at 10 µM: 56%

## COc1ccc(-c2c(C)nn3c(Nc4cccc(Cl)c4)cc(C)nc23)cc1OC [Ex. 51, N-(3-chlorophenyl)-3-(3,4-dimethoxyphenyl)-2,5-dimethyl-pyrazolo[1,5-a]pyrimidin-7-amine]
Ljungan virus strain 145
  inhibition at 10 µM: 94%

## COc1ccc(-c2c(C)nn3c(Nc4ccc(C)c(C)c4)cc(C)nc23)cc1OC [Ex. 52, 3-(3,4-dimethoxyphenyl)-N-(3,4-dimethylphenyl)-2,5-dimethyl-pyrazolo[1,5-a]pyrimidin-7-amine]
Ljungan virus strain 145
  inhibition at 10 µM: 63%

## COc1ccc(-c2c(C)nn3c(Nc4ccc(C)c(Cl)c4)cc(C)nc23)cc1OC [Ex. 55, N-(3-chloro-4-methyl-phenyl)-3-(3,4-dimethoxyphenyl)-2,5-dimethyl-pyrazolo[1,5-a]pyrimidin-7-amine]
Ljungan virus strain 145
  inhibition at 1 µM: 41%

## COc1ccc(-c2c(C)nn3c(Nc4cc(C)cc(C)c4)cc(C)nc23)cc1OC [Ex. 56, 3-(3,4-dimethoxyphenyl)-N-(3,5-dimethylphenyl)-2,5-dimethyl-pyrazolo[1,5-a]pyrimidin-7-amine]
Ljungan virus strain 145
  inhibition at 1 µM: 61%

## COc1ccc(-c2c(C)nn3c(Nc4ccc(C(C)C)cc4)cc(C)nc23)cc1OC [Ex. 60, 3-(3,4-dimethoxyphenyl)-N-(4-isopropylphenyl)-2,5-dimethyl-pyrazolo[1,5-a]pyrimidin-7-amine]
Enterovirus strain 71
  inhibition at 1 µM: 69%

## COc1cccc(Nc2cc(C)nc3c(-c4ccc(OC)c(OC)c4)c(C)nn23)c1 [Ex. 61, 3-(3,4-dimethoxyphenyl)-N-(3-methoxyphenyl)-2,5-dimethyl-pyrazolo[1,5-a]pyrimidin-7-amine]
Ljungan virus strain 145
  inhibition at 10 µM: 85%

## COc1ccc(-c2c(C)nn3c(NCCc4ccccn4)cc(C)nc23)cc1 [Ex. 68, 3-(4-methoxyphenyl)-2,5-dimethyl-N-[2-(2-pyridyl)ethyl]pyrazolo[1,5-a]pyrimidin-7-amine]
Ljungan virus strain 145
  inhibition at 10 µM: 86%

## COc1ccc(-c2c(C)nn3c(Nc4ccncc4)cc(C)nc23)cc1OC [Ex. 74, 3-(3,4-dimethoxyphenyl)-2,5-dimethyl-N-(4-pyridyl)pyrazolo[1,5-a]pyrimidin-7-amine]
Ljungan virus strain 012
  inhibition at 10 µM: 55%

## COc1ccc(-c2c(C)nn3c(NCc4ccc(OC(F)(F)F)cc4)cc(C)nc23)cc1OC [Ex. 76, 3-(3,4-dimethoxyphenyl)-2,5-dimethyl-N-[[4-(trifluoromethoxy)phenyl]methyl]pyrazolo[1,5-a]pyrimidin-7-amine]
[3]
  inhibition at 1 µM: 100%

## COc1ccc(-c2c(C)nn3c(NCc4ccc(NC(C)=O)cc4)cc(C)nc23)cc1OC [Ex. 77, N-[4-[[[3-(3,4-dimethoxyphenyl)-2,5-dimethyl-pyrazolo[1,5-a]pyrimidin-7-yl]amino]methyl]phenyl]acetamide]
[3]
  inhibition at 0.1 µM: 60%

## COc1ccc(-c2c(C)nn3c(NCc4ccc(N(C)C)cc4)cc(C)nc23)cc1OC [Ex. 78, 3-(3,4-dimethoxyphenyl)-N-[(4-dimethylaminophenyl)methyl]-2,5-dimethyl-pyrazolo[1,5-a]pyrimidin-7-amine]
[4]
  inhibition at 0.1 µM: 94%

## COc1ccc(-c2c(C)nn3c(NCc4cc[n+]([O-])cc4)cc(C)nc23)cc1OC [Ex. 83, 3-(3,4-dimethoxyphenyl)-2,5-dimethyl-N-[(1-oxidopyridin-1-ium-4-yl)methyl]pyrazolo[1,5-a]pyrimidin-7-amine]
Enterovirus strain 71
  inhibition at 0.01 µM: 82%

## COc1ccc(-c2c(C)nn3c(NCc4ccc(S(C)(=O)=O)cc4)cc(C)nc23)cc1OC [Ex. 84, 3-(3,4-dimethoxyphenyl)-2,5-dimethyl-N-[(4-methylsulfonylphenyl)methyl]pyrazolo[1,5-a]pyrimidin-7-amine]
[3]
  inhibition at 0.1 µM: 84%

## COc1ccc(-c2c(C)nn3c(NCCc4ccccn4)cc(C)nc23)cc1OC [Ex. 85, 3-(3,4-dimethoxyphenyl)-2,5-dimethyl-N-[2-(2-pyridyl)ethyl]pyrazolo[1,5-a]pyrimidin-7-amine]
[4]
  inhibition at 1 µM: 98%

## COc1ccc(-c2c(C)nn3c(NCc4ccc(C(C)(C)C)cc4)cc(C)nc23)cc1OC [Ex. 86, N-[(4-tert-butylphenyl)methyl]-3-(3,4-dimethoxyphenyl)-2,5-dimethyl-pyrazolo[1,5-a]pyrimidin-7-amine]
Ljungan virus strain 012
  inhibition at 10 µM: 48%

## COc1ccc(-c2c(C)nn3c(NCCc4cccs4)cc(C)nc23)cc1OC [Ex. 88, 3-(3,4-dimethoxyphenyl)-2,5-dimethyl-N-[2-(2-thienyl)ethyl]pyrazolo[1,5-a]pyrimidin-7-amine]
Enterovirus strain 30; EV30, Conc. 1.0 μM, read-out: % inh.
  inhibition at 1 µM: 88%

## COc1ccc(-c2c(C)nn3c(NC4Cc5ccccc5C4)cc(C)nc23)cc1OC [Ex. 91, 3-(3,4-dimethoxyphenyl)-N-indan-2-yl-2,5-dimethyl-pyrazolo[1,5-a]pyrimidin-7-amine]
[2]
  inhibition at 1 µM: 75%

## COc1ccc(-c2c(C)nn3c(Nc4ncc(C)s4)cc(C)nc23)cc1OC [Ex. 93, N-[3-(3,4-dimethoxyphenyl)-2,5-dimethyl-pyrazolo[1,5-a]pyrimidin-7-yl]-5-methyl-thiazol-2-amine]
Ljungan virus strain 012; LV012, Conc. 100 μM
  inhibition at 100 µM: 42%

## COc1ccc(-c2c(C)nn3c(NCc4cccc5ccccc45)cc(C)nc23)cc1OC [Ex. 96, 3-(3,4-dimethoxyphenyl)-2,5-dimethyl-N-(1-naphthylmethyl)pyrazolo[1,5-a]pyrimidin-7-amine]
[4]
  inhibition at 0.1 µM: 100%

## COc1ccc(-c2c(C)nn3c(NCc4ccc(S(N)(=O)=O)cc4)cc(C)nc23)cc1OC [Ex. 97, 4-[[[3-(3,4-dimethoxyphenyl)-2,5-dimethyl-pyrazolo[1,5-a]pyrimidin-7-yl]amino]methyl]benzenesulfonamide]
Enterovirus strain 71; EV71, Conc. 0.1 μM
  inhibition at 0.1 µM: 94%

## COc1ccc(-c2cnn3c(NCc4ccc(F)cc4)cc(C)nc23)cc1OC [Ex. 99, 3-(3,4-dimethoxyphenyl)-N-[(4-fluorophenyl)methyl]-5-methyl-pyrazolo[1,5-a]pyrimidin-7-amine]
[3]
  inhibition at 0.1 µM: 100%

## Cc1cc(NCc2ccc(F)cc2)n2nc(C)c(-c3ccc4c(c3)OCO4)c2n1 [Ex. 102, 3-(1,3-benzodioxol-5-yl)-N-[(4-fluorophenyl)methyl]-2,5-dimethyl-pyrazolo[1,5-a]pyrimidin-7-amine]
[3]
  inhibition at 1 µM: 100%

## COc1cc(-c2c(C)nn3c(NCc4ccc(F)cc4)cc(C)nc23)cc(OC)c1OC [Ex. 105, N-[(4-fluorophenyl)methyl]-2,5-dimethyl-3-(3,4,5-trimethoxyphenyl)pyrazolo[1,5-a]pyrimidin-7-amine]
Enterovirus strain 30; EV30, Conc. 10 μM, read-out: % inh.
  inhibition at 10 µM: 67%

## Cc1cc(NCc2ccc(F)cc2)n2nc(C)c(-c3ccc(F)c(F)c3)c2n1 [Ex. 106, 3-(3,4-difluorophenyl)-N-[(4-fluorophenyl)methyl]-2,5-dimethyl-pyrazolo[1,5-a]pyrimidin-7-amine]
Ljungan virus strain 145
  inhibition at 10 µM: 100%

## COc1ccc(-c2c(C)nn3c(NCc4ccc(C)cc4)cc(C)nc23)cc1F [Ex. 108, 3-(3-fluoro-4-methoxy-phenyl)-2,5-dimethyl-N-(p-tolylmethyl)pyrazolo[1,5-a]pyrimidin-7-amine]
[4]
  inhibition at 1 µM: 100%

## Cc1ccc(CNc2cc(C)nc3c(-c4ccc(O)c(O)c4)c(C)nn23)cc1 [Ex. 110, 4-[2,5-dimethyl-7-(p-tolylmethylamino)pyrazolo[1,5-a]pyrimidin-3-yl]benzene-1,2-diol]
[2]
  inhibition at 1 µM: 72%
